pIC50: −log10 of the molar value. Structures can show the parent of a compound that is named as a salt.
How the values were obtained:
CRBN/DDB1 = CRBN/DDB1 (Homo sapiens, UniProt Q96SW2); assay: HTRF binding assay (thalidomide probe displacement from CRBN/DDB1); conditions: CRBN/DDB1 2.5 nM, Cy5-Thalidomide 100 nM, 30 min; geometric mean; read-out: HTRF_Thali_Disp_DR—geo_IC50
From the text: Binding of test compounds to CRBN/DDB1 was monitored in an HTRF assay using 1-[5-({2-[2-(2-{[2-(2,6-dioxopiperidin-3-yl)-1,3-dioxo-2,3-dihydro-1H-isoindol-4-yl]oxy}acetamido)ethoxy]ethyl}carbamoyl)pentyl]-3,3-dimethyl-2-[(1E,3E)-5-[(2E)-1,3,3-trimethyl-5-sulfo-2,3-dihydro-1H-indol-2-ylidene]penta-1,3-dien-1-yl]-3H-indol-1-ium-5-sulfonate as a fluorescent probe. In this assay, compounds displace the fluorescently labeled thalidomide-based probe bound to CRBN and fluorescence is monitored with increasing compound concentration. Assays were conducted in Greiner white 384 well HiBase plates (Cat. No 784075-25) in 10 μL total volume. A one pot detection solution of CRBN/DDB1 (2.5 nM), anti-His Terbium Cryptate Gold (1×, PerkinElmer Cat. #: 61HI2TLB), and Cy5-Thalidomide (100 nM, Tenova Cat.: T52461) was prepared in 20 mM HEPES, 20 mM NaCl, 0.2 mM TCEP, 0.2 mM EDTA, and 0.005% Tween20 was dispensed to each assay plate. Test compounds were stored in dry, ambient temperatures at 10 mM. A 10-point, 1:3 dilution series was prepared from 10 mM stock concentrations in Echo-compatible LDV plates. 10 nL of each compound dilution series was dispensed into assays wells using an Echo 650 (Labcyte inc. USA). 10 nL of 10 mM lenalidomide (Selleckchem Cat no. S1029) was transferred into the active-control wells for the assay and 10 nL of DMSO was transferred into the negative control wells. The assay was then allowed to incubate for 30 min at ambient temperature after transferring the test compounds. Plate measurements were taken on a Pherastar FSX (BMG Labtech, Germany) using the HTRF Red filter (Ex. 337 nm, eml: 620 nm, em2: 665 nm) (Flashes: 50, Integration time: 60-400 μs, Z-height: 10 mm, Ratio-multiplier: 10,000). Analysis, HTRF ratio and IC50 values were derived using KNIME analytics (KNIME Zurich) transformation and fitting within Collaborative Drug Discovery (Collaborative Drug Discovery USA) using a 4-parameter logistic fit. HTRF ratio calculation was performed using the following formula: […]
where em665nm represents the measured emission at 665 nm upon excitation at 337 nm and em620nm the measured emission at 620 nm upon excitation at 337 nm. The 4 parameter logistic fitting model was performed using the following formula: […]
where Y represents the HTRF ratio response (as defined previously), X the compound concentration in μM, Ymin the minimum response plateau, Ymax the maximum response plateau, IC50 the concentration of agonist that gives a response half way between Ymin and Ymax and HillSlope the steepness of the family of curves. No fitting model constraints was applied on Ymin, or Ymax whilst IC50>0 and −0.5>HillSlope>−3
Ki values were derived from the geometric mean of the IC50 values using the Cheng-Prusoff transformation:
where [L] represents the concentration of fluorescent probe in μM, Kd the affinity (binding constant) of the fluorescent probe in units of μM and IC50 the concentration of agonist that gives a response halfway between Ymin and Ymax (as described in 1.2.1)
Analysis and IC50 values were derived using KNIME analytics (KNIME, Zurich) transformation and fitting within Collaborative Drug Discovery (Collaborative Drug Discovery, USA) as described in 1.2.1. Ki values were derived from the geometric mean of the IC50 values using the Cheng-Prusoff transformation as described in 2.2.2. Data was visualized in GraphPad Prism 8.1.2 (GraphPad, USA) and reported as mean and standard deviation. Microsoft Office Excel 2012 (Redmond, WA) was used for calculation of mean and standard deviation.
IC50 data are reported in Table 3 for compounds in Table 1. In Table 3 below, According to the code, A represents a IC50 value of ≤0.1 μM, B represents a IC50 value≥0.1 μM and ≤1 μM, C represents an IC50 value>1 μM.

CK1α = target: T1, CK1α (Homo sapiens, UniProt P48729+Q96SW2); assay: CK1α NanoBiT assay (HiBiT-tagged CSNK1A1 in HEK293 clonal line); type: cell-based; conditions: HEK293 HiBiT-CSNK1A1/LgBiT cells, 24 h incubation, luminescence
T1 construct: HEK293 clonal line with CRISPR KI HiBiT tag on CSNK1A1; host or cells: HEK293 clonal line, CRISPR HiBiT knock-in at CSNK1A1, stably expressing LgBiT
T1 sequence (P48729 whole entry): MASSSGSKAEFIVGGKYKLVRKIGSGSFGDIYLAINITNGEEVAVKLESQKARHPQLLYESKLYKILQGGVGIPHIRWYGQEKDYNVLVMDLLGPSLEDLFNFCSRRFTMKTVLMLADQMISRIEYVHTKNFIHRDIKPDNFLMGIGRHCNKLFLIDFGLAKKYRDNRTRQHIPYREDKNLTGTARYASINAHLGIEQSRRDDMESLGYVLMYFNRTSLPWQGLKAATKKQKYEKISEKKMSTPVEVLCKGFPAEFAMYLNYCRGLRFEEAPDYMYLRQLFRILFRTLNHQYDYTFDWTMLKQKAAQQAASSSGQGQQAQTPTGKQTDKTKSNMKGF
T1 sequence (Q96SW2 whole entry): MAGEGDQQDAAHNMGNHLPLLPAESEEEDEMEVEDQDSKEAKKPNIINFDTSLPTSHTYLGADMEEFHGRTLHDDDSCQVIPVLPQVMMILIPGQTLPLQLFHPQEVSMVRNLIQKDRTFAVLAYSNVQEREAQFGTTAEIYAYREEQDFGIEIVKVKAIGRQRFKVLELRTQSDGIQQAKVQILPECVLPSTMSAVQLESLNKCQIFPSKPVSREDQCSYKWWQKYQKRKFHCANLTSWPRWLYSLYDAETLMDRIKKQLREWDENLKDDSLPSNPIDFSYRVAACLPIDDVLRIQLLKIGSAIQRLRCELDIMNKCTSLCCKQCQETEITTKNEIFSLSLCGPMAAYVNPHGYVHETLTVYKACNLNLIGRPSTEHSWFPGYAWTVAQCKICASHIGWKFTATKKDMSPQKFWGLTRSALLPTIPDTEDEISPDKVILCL
T1 sequence (Q16531 2-1140 partner limits assumed): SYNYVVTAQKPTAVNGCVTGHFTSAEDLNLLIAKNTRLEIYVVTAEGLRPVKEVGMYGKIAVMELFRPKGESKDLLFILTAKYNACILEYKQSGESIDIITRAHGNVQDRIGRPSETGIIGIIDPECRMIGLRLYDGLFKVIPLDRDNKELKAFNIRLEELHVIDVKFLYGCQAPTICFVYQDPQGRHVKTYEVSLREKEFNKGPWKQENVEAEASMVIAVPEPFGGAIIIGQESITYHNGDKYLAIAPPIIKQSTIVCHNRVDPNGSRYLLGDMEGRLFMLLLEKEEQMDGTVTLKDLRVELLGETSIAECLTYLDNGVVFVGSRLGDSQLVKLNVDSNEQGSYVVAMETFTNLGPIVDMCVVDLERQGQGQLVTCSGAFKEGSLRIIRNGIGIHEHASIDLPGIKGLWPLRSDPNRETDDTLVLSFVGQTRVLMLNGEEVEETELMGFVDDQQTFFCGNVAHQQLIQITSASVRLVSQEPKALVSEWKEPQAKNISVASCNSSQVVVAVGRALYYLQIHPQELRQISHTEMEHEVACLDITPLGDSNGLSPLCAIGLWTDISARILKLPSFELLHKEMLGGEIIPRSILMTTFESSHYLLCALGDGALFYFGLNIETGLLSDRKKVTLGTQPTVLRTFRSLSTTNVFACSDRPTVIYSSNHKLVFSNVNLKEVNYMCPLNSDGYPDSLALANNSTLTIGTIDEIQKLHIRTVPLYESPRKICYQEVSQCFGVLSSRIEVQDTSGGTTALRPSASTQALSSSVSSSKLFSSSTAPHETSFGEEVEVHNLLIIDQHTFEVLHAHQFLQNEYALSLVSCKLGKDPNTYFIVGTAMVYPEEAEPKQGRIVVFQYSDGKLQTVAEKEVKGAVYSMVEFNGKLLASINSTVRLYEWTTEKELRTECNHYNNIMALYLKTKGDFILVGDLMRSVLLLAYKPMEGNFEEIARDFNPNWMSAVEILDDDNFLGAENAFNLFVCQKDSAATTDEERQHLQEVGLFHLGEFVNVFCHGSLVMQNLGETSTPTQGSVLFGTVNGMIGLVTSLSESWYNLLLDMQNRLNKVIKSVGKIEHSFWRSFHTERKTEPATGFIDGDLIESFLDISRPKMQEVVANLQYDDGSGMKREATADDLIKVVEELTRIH
Method: HEK293 clonal line with CRISPR KI HiBiT tag on CSNK1A1 and stably expressing LgBiT protein was obtained from Promega (Madison, WI). Cells were plated at 5000 cells per well using Multiflo (BioTek) in 384-well white solid bottom plates (Corning, 3570BC) in […] volume in DMEM media (DMEM, high glucose, HEPES, no phenol red (ThermoFisher Scientific, 21063029)) containing 10% FBS (Corning, 35-075-CV), 1% Penicillin/Streptomycin ((ThermoFisher Scientific, 15140-122), and 0.2% Endurazine (Nano-Glo Endurazine Live Cell Substrate (Promega, N2571)). Cells were incubated for 16 hours at 37C, 5% CO2. Depending on experiment 25 or 75 nL of a compound at 10 mM were added into the plate using an Echo®650 liquid handler (Labcyte) to achieve final concentration of […] in wells. Cells were incubated at 37° C., 5% CO2 for 24 hours followed by signal was read on Pherastar FSX using “LUM plus” optic module.
Data analysis was performed using Scinamic (Scinamic, Cambridge, MA).
Luminescence response (R) was calculated by the formula: response=100*(S−N)/(P−N), where S is the signal of the well, N and P the mean negative and positive control values, respectively, of the same plate. The luminescence response was then fitted in Scinamic using a 3-parameter agonist logistic fit (hillslope=1, EC50>0, top/bottom unconstrained).
DC50 data are reported in Table 2 for compounds in Table 1. In Table 2 below, According to the code, A represents a DC50 value of ≤0.1 μM, B represents a DC50 value>0.1 μM and ≤1 μM, C represents an DC50 value>1 μM.

Sequence of CRBN/DDB1 (Q96SW2 whole entry): as the sequence (Q96SW2 whole entry) above
Sequence of CRBN/DDB1 (Q16531 whole entry partner): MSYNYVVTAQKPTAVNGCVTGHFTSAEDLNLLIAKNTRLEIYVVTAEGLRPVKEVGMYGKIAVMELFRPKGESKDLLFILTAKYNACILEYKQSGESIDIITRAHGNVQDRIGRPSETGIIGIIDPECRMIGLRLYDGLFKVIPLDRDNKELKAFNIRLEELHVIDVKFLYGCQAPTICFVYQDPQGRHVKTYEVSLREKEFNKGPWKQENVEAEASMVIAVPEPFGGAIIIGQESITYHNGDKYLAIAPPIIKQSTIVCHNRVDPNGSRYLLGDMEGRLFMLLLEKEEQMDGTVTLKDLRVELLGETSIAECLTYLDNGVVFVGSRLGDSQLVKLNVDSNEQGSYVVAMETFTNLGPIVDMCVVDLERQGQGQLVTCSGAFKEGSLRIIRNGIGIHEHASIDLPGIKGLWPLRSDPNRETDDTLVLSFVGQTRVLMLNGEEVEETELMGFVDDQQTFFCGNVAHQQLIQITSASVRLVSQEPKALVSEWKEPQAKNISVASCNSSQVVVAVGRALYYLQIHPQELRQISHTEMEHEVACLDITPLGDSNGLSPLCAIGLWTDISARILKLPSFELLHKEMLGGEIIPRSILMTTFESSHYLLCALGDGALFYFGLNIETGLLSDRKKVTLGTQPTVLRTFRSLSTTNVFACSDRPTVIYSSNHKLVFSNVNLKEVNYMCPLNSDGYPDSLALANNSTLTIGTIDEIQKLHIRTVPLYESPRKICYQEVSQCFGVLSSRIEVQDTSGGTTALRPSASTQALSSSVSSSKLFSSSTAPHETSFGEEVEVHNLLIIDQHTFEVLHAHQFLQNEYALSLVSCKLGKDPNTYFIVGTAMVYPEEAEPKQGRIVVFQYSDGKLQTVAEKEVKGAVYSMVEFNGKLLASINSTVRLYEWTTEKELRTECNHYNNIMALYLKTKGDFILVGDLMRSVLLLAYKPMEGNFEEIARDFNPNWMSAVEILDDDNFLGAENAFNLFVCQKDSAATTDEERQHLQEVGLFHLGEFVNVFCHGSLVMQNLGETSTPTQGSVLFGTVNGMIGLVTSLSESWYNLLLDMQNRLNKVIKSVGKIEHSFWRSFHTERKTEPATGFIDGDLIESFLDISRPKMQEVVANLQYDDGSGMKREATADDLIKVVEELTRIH

Structure (SMILES)	pIC50 (CRBN/DDB1)	DC50 (CK1α) [µM]
Cn1ccnc1C(=O)Nc1ccc2c(c1)CN(C1CCC(=O)NC1=O)C2=O (stereo not shown) [Compound 119, N-(2-(2,6-dioxopiperidin-3-yl)-1-oxoisoindolin-5-yl)-1-methyl-1H-imidazole-2-carboxamide]	6.00 to 7.00	> 1
O=C1CCC(N2Cc3cc(NC(=O)c4ccc(Cl)c(F)c4)ccc3C2=O)C(=O)N1 (stereo not shown) [Compound 121, 4-chloro-N-(2-(2,6-dioxopiperidin-3-yl)-1-oxoisoindolin-5-yl)-3-fluorobenzamide]	6.00 to 7.00	< 0.1
O=C1CCC(N2Cc3cc(NC(=O)c4cccc5c4CC(=O)N5)ccc3C2=O)C(=O)N1 (stereo not shown) [Compound 124, N-(2-(2,6-dioxopiperidin-3-yl)-1-oxoisoindolin-5-yl)-2-oxoindoline-4-carboxamide]	≥ 7.00	0.1 to 1
O=C1CCC(N2Cc3cc(NC(=O)c4cccc(C(F)(F)F)c4)ccc3C2=O)C(=O)N1 (stereo not shown) [Compound 125, N-(2-(2,6-dioxopiperidin-3-yl)-1-oxoisoindolin-5-yl)-3-(trifluoromethyl)benzamide]	6.00 to 7.00	< 0.1
O=C1CCC(N2Cc3cc(NC(=O)c4ccc(F)cc4)ccc3C2=O)C(=O)N1 (stereo not shown) [Compound 126, N-(2-(2,6-dioxopiperidin-3-yl)-1-oxoisoindolin-5-yl)-4-fluorobenzamide]	6.00 to 7.00	< 0.1
O=C1CCC(N2Cc3cc(NC(=O)c4cccc5c4CCC5)ccc3C2=O)C(=O)N1 (stereo not shown) [Compound 129, N-(2-(2,6-dioxopiperidin-3-yl)-1-oxoisoindolin-5-yl)-2,3-dihydro-1H-indene-4-carboxamide]	6.00 to 7.00	< 0.1
O=C1CCC(N2Cc3cc(NC(=O)c4ccccn4)ccc3C2=O)C(=O)N1 (stereo not shown) [Compound 133, N-(2-(2,6-dioxopiperidin-3-yl)-1-oxoisoindolin-5-yl)]	6.00 to 7.00	0.1 to 1
CC(C)Cc1ccccc1C(=O)Nc1ccc2c(c1)CN(C1CCC(=O)NC1=O)C2=O (stereo not shown) [Compound 134, N-(2-(2,6-dioxopiperidin-3-yl)-1-oxoisoindolin-5-yl)-2-isobutylbenzamide]	6.00 to 7.00	0.1 to 1
O=C1CCC(N2Cc3cc(NC(=O)c4ccccc4C(F)(F)F)ccc3C2=O)C(=O)N1 (stereo not shown) [Compound 137, N-(2-(2,6-dioxopiperidin-3-yl)-1-oxoisoindolin-5-yl)-2-(trifluoromethyl)benzamide]	6.00 to 7.00	< 0.1
CCc1ccccc1C(=O)Nc1ccc2c(c1)CN(C1CCC(=O)NC1=O)C2=O (stereo not shown) [Compound 141, N-(2-(2,6-dioxopiperidin-3-yl)-1-oxoisoindolin-5-yl)-2-ethylbenzamide]	6.00 to 7.00	0.1 to 1

The next lines start with the values.

pIC50 (CRBN/DDB1)	DC50 (CK1α) [µM]	Structure (SMILES)
6.00 to 7.00	< 0.1	O=C1CCC(N2Cc3cc(NC(=O)c4ncco4)ccc3C2=O)C(=O)N1 (stereo not shown) [Compound 120, N-(2-(2,6-dioxopiperidin-3-yl)-1-oxoisoindolin-5-yl)oxazole-2-carboxamide]
6.00 to 7.00	< 0.1	O=C1CCC(N2Cc3cc(NC(=O)c4ccc(C(F)(F)F)cc4)ccc3C2=O)C(=O)N1 (stereo not shown) [Compound 122, N-(2-(2,6-dioxopiperidin-3-yl)-1-oxoisoindolin-5-yl)-4-(trifluoromethyl)benzamide]
6.00 to 7.00	0.1 to 1	Cc1ccc(C(=O)Nc2ccc3c(c2)CN(C2CCC(=O)NC2=O)C3=O)cn1 (stereo not shown) [Compound 123, N-(2-(2,6-dioxopiperidin-3-yl)-1-oxoisoindolin-5-yl)-6-methylnicotinamide]
6.00 to 7.00	< 0.1	Cc1ccc(C(=O)Nc2ccc3c(c2)CN(C2CCC(=O)NC2=O)C3=O)cc1 (stereo not shown) [Compound 127, N-(2-(2,6-dioxopiperidin-3-yl)-1-oxoisoindolin-5-yl)-4-methylbenzamide]
6.00 to 7.00	> 1	O=C1CCC(N2Cc3cc(NC(=O)c4ccccc4C4CCCC4)ccc3C2=O)C(=O)N1 (stereo not shown) [Compound 128, 2-cyclopentyl-N-(2-(2,6-dioxopiperidin-3-yl)-1-oxoisoindolin-5-yl)benzamide formate]
6.00 to 7.00	0.1 to 1	N#Cc1ccc(C(=O)Nc2ccc3c(c2)CN(C2CCC(=O)NC2=O)C3=O)cc1 (stereo not shown) [Compound 130, 4-cyano-N-(2-(2,6-dioxopiperidin-3-yl)-1-oxoisoindolin-5-yl)benzamide]
6.00 to 7.00	< 0.1	O=C1CCC(N2Cc3cc(NC(=O)c4ccc(Cl)cc4F)ccc3C2=O)C(=O)N1 (stereo not shown) [Compound 131, 4-chloro-N-(2-(2,6-dioxopiperidin-3-yl)-1-oxoisoindolin-5-yl)-2-fluorobenzamide]
6.00 to 7.00	0.1 to 1	Cc1ccccc1C(=O)Nc1ccc2c(c1)CN(C1CCC(=O)NC1=O)C2=O (stereo not shown) [Compound 132, N-(2-(2,6-dioxo-3-piperidyl)-1-oxo-isoindolin-5-yl)-2-methyl-benzamide]
6.00 to 7.00	0.1 to 1	N#Cc1cccc(C(=O)Nc2ccc3c(c2)CN(C2CCC(=O)NC2=O)C3=O)c1 (stereo not shown) [Compound 136, 3-cyano-N-(2-(2,6-dioxopiperidin-3-yl)-1-oxoisoindolin-5-yl) benzamide]
6.00 to 7.00	< 0.1	Cc1cccc(C(=O)Nc2ccc3c(c2)CN(C2CCC(=O)NC2=O)C3=O)c1 (stereo not shown) [Compound 139, N-(2-(2,6-dioxopiperidin-3-yl)-1-oxoisoindolin-5-yl)-3-methylbenzamide]
6.00 to 7.00	0.1 to 1	CC(C)c1ccccc1C(=O)Nc1ccc2c(c1)CN(C1CCC(=O)NC1=O)C2=O (stereo not shown) [Compound 140, N-(2-(2,6-dioxopiperidin-3-yl)-1-oxoisoindolin-5-yl)-2-isopropylbenzamide]
6.00 to 7.00	< 0.1	O=C1CCC(N2Cc3cc(NC(=O)c4cccc(F)c4)ccc3C2=O)C(=O)N1 (stereo not shown) [Compound 142, N-(2-(2,6-dioxopiperidin-3-yl)-1-oxoisoindolin-5-yl)-3-fluorobenzamide]
6.00 to 7.00	0.1 to 1	O=C1CCC(N2Cc3cc(NC(=O)c4ccccc4F)ccc3C2=O)C(=O)N1 (stereo not shown) [Compound 143, N-(2-(2,6-dioxopiperidin-3-yl)-1-oxoisoindolin-5-yl)-2-fluorobenzamide]
